Assay results published in paper PMC5761851, “Application of a phenotypic drug discovery strategy to identify biological and chemical starting points for inhibition of TSLP production in lung epithelial cells” (PLoS ONE, 2018).

How the values were obtained:
H3 = target: T1, H3 (Homo sapiens, UniProt Q9Y5N1); test: BioPrint panel: H3 (h) (agonist); type: binding; details: 1 micromolar, read-out: percentage of inhibition of activity
T1 construct: purchased Eurofins Pharma Discovery Services (KinaseProfiler; Cerep BioPrint panel)
Text: (§1) Supplement pone.0189247.s004.xlsx, sheet "Bioprint Selectivity Panel" | column: %

H2 = target: T2, H2 (Homo sapiens, UniProt P25021); test: BioPrint panel: H2 (h) (antagonist); type: binding; details: 1 micromolar, read-out: percentage of inhibition of activity
T2 construct: purchased Eurofins Pharma Discovery Services (KinaseProfiler; Cerep BioPrint panel)
Text: as §1

HIV-1 protease = test: BioPrint panel: HIV-1 protease; type: biochemical; details: 1 micromolar
Text: as §1

APJ (apelin) = target: T3, APJ (apelin) (Homo sapiens, UniProt P35414); test: BioPrint panel: APJ (apelin) (h) (agonist); type: binding; details: 1 micromolar, read-out: percentage of inhibition of activity
T3 construct: purchased Eurofins Pharma Discovery Services (KinaseProfiler; Cerep BioPrint panel)
Text: as §1

5-HT4e = target: T4, 5-HT4e (Homo sapiens, UniProt Q13639); test: BioPrint panel: 5-HT4e (h) (antagonist); type: binding; details: 1 micromolar, read-out: percentage of inhibition of activity
T4 construct: purchased Eurofins Pharma Discovery Services (KinaseProfiler; Cerep BioPrint panel)
Text: as §1

IP (PGI2) = target: T5, IP (PGI2) (Homo sapiens, UniProt P43119); test: BioPrint panel: IP (PGI2) (h) (agonist); type: binding; details: 1 micromolar, read-out: percentage of inhibition of activity
T5 construct: purchased Eurofins Pharma Discovery Services (KinaseProfiler; Cerep BioPrint panel)
Text: as §1

GR = target: T6, GR (Homo sapiens, UniProt P04150); test: BioPrint panel: GR (h) (agonist); type: binding; details: 1 micromolar, read-out: percentage of inhibition of activity
T6 construct: purchased Eurofins Pharma Discovery Services (KinaseProfiler; Cerep BioPrint panel)
Text: as §1

sst1 = target: T7, sst1 (Homo sapiens, UniProt P30872); test: BioPrint panel: sst1 (h) (agonist); type: binding; details: 1 micromolar, read-out: percentage of inhibition of activity
T7 construct: purchased Eurofins Pharma Discovery Services (KinaseProfiler; Cerep BioPrint panel)
Text: as §1

NK1 = target: T8, NK1 (Homo sapiens, UniProt P25103); test: BioPrint panel: NK1 (h) (agonist); type: binding; details: 1 micromolar, read-out: percentage of inhibition of activity
T8 construct: purchased Eurofins Pharma Discovery Services (KinaseProfiler; Cerep BioPrint panel)
Text: as §1

5-HT3 = target: T9, 5-HT3 (Homo sapiens, UniProt P46098); test: BioPrint panel: 5-HT3 (h) (antagonist); type: binding; details: 1 micromolar, read-out: percentage of inhibition of activity
T9 construct: purchased Eurofins Pharma Discovery Services (KinaseProfiler; Cerep BioPrint panel)
Text: as §1

AT2 = target: T10, AT2 (Homo sapiens, UniProt P50052); test: BioPrint panel: AT2 (h) (agonist); type: binding; details: 1 micromolar, read-out: percentage of inhibition of activity
T10 construct: purchased Eurofins Pharma Discovery Services (KinaseProfiler; Cerep BioPrint panel)
Text: as §1

CRF1 = target: T11, CRF1 (Homo sapiens, UniProt P34998); test: BioPrint panel: CRF1 (h) (agonist); type: binding; details: 1 micromolar, read-out: percentage of inhibition of activity
T11 construct: purchased Eurofins Pharma Discovery Services (KinaseProfiler; Cerep BioPrint panel)
Text: as §1

5-HT transporter = target: T12, 5-HT transporter (Homo sapiens, UniProt P31645); test: BioPrint panel: 5-HT transporter (h) (antagonist); type: binding; details: 1 micromolar, read-out: percentage of inhibition of activity
T12 construct: purchased Eurofins Pharma Discovery Services (KinaseProfiler; Cerep BioPrint panel)
Text: as §1

V2 = target: T13, V2 (Homo sapiens, UniProt P30518); test: BioPrint panel: V2 (h) (agonist); type: binding; details: 1 micromolar, read-out: percentage of inhibition of activity
T13 construct: purchased Eurofins Pharma Discovery Services (KinaseProfiler; Cerep BioPrint panel)
Text: as §1

kappa (KOP) = target: T14, kappa (KOP) (Rattus norvegicus, UniProt P34975); test: BioPrint panel: kappa (KOP) (agonist); type: binding; details: 1 micromolar, read-out: percentage of inhibition of activity
T14 construct: purchased Eurofins Pharma Discovery Services (KinaseProfiler; Cerep BioPrint panel)
Text: as §1

5-HT2B = target: T15, 5-HT2B (Homo sapiens, UniProt P41595); test: BioPrint panel: 5-HT2B (h) (agonist); type: binding; details: 1 micromolar, read-out: percentage of inhibition of activity
T15 construct: purchased Eurofins Pharma Discovery Services (KinaseProfiler; Cerep BioPrint panel)
Text: as §1

IRK (InsR) = target: T16, IRK (InsR) (Homo sapiens, UniProt P06213); test: BioPrint panel: IRK (h) (InsR); type: biochemical; details: 1 micromolar, read-out: percentage of inhibition of activity
T16 construct: purchased Eurofins Pharma Discovery Services (KinaseProfiler; Cerep BioPrint panel)
Text: as §1

p38alpha kinase = target: T17, p38alpha kinase (Homo sapiens, UniProt Q16539); test: BioPrint panel: p38alpha kinase (h); type: biochemical; details: 1 micromolar, read-out: percentage of inhibition of activity
T17 construct: purchased Eurofins Pharma Discovery Services (KinaseProfiler; Cerep BioPrint panel)
Text: as §1

ACE-2 = target: T18, ACE-2 (Homo sapiens, UniProt Q9BYF1); test: BioPrint panel: ACE-2 (h); type: biochemical; details: 1 micromolar
T18 construct: purchased Eurofins Pharma Discovery Services (KinaseProfiler; Cerep BioPrint panel)
Text: as §1

MMP-2 = target: T19, MMP-2 (Homo sapiens, UniProt P08253); test: BioPrint panel: MMP-2 (h); type: biochemical; details: 1 micromolar, read-out: percentage of inhibition of activity
T19 construct: purchased Eurofins Pharma Discovery Services (KinaseProfiler; Cerep BioPrint panel)
Text: as §1

alpha 1B = target: T20, alpha 1B (Homo sapiens, UniProt P35368); test: BioPrint panel: alpha 1B (h) (antagonist); type: binding; details: 1 micromolar, read-out: percentage of inhibition of activity
T20 construct: purchased Eurofins Pharma Discovery Services (KinaseProfiler; Cerep BioPrint panel)
Text: as §1

D1 = target: T21, D1 (Homo sapiens, UniProt P21728); test: BioPrint panel: D1 (h) (antagonist); type: binding; details: 1 micromolar, read-out: percentage of inhibition of activity
T21 construct: purchased Eurofins Pharma Discovery Services (KinaseProfiler; Cerep BioPrint panel)
Text: as §1

CB2 = target: T22, CB2 (Homo sapiens, UniProt P34972); test: BioPrint panel: CB2 (h) (agonist); type: binding; details: 1 micromolar, read-out: percentage of inhibition of activity
T22 construct: purchased Eurofins Pharma Discovery Services (KinaseProfiler; Cerep BioPrint panel)
Text: as §1

alpha 2C = target: T23, alpha 2C (Homo sapiens, UniProt P18825); test: BioPrint panel: alpha 2C (h) (antagonist); type: binding; details: 1 micromolar, read-out: percentage of inhibition of activity
T23 construct: purchased Eurofins Pharma Discovery Services (KinaseProfiler; Cerep BioPrint panel)
Text: as §1

T6 sequence (P04150 whole entry): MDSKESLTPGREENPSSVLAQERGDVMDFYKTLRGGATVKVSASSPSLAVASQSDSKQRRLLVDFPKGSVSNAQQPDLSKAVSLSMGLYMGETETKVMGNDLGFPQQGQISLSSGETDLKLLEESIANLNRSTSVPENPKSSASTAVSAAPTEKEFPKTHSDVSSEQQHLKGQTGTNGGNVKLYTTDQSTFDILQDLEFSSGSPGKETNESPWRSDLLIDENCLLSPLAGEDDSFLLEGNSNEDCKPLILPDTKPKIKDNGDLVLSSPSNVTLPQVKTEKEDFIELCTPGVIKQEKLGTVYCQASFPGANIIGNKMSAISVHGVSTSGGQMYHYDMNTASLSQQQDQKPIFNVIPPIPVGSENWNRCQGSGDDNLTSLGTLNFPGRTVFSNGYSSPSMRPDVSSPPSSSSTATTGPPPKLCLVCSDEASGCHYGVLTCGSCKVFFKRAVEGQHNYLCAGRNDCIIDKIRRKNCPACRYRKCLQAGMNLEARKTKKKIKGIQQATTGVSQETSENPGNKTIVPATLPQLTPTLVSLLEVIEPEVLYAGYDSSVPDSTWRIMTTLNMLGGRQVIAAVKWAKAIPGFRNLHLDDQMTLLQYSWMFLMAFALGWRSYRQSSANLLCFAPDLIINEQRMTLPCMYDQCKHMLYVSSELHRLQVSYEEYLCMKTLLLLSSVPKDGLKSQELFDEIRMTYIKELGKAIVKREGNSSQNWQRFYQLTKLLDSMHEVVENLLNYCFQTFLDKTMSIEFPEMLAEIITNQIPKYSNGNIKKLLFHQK
T13 sequence (P30518 whole entry): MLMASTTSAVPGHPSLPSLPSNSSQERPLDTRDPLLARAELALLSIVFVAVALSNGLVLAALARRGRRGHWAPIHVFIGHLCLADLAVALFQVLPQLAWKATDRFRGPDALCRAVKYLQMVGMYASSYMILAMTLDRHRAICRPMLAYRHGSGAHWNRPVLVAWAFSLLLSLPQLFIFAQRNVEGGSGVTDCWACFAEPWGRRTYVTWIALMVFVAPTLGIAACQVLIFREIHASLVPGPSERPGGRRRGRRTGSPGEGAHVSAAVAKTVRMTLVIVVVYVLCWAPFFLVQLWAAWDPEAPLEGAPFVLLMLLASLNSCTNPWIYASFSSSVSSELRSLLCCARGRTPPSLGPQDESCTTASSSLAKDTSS
T19 sequence (P08253 110-660): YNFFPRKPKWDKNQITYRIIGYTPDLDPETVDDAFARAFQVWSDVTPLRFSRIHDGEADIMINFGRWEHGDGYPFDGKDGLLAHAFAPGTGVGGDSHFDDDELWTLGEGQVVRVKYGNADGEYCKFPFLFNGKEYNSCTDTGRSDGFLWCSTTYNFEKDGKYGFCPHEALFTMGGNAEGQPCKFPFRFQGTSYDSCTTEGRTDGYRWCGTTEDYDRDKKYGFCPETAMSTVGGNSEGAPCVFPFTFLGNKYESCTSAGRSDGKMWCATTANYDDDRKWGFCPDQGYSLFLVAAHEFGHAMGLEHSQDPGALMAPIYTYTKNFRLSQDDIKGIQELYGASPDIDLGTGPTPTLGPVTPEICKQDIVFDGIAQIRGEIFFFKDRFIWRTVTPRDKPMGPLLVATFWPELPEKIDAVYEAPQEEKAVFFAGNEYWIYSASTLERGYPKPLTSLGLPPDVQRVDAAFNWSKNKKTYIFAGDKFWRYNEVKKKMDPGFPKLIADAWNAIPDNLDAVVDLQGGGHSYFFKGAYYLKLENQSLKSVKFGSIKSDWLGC
T23 sequence (P18825 whole entry): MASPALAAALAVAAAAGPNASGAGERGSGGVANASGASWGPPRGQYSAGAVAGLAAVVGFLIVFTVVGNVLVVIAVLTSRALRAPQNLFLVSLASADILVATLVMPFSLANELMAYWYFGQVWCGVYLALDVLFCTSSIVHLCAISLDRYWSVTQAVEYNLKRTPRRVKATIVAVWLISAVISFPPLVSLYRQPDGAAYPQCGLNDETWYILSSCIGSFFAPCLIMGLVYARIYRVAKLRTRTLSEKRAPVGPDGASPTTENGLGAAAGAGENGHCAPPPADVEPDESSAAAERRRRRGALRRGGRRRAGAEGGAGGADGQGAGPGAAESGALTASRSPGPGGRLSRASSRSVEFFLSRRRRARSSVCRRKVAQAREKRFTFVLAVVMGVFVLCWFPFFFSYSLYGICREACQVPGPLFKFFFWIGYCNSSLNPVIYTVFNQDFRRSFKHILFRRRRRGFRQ
T11 sequence (P34998 24-415): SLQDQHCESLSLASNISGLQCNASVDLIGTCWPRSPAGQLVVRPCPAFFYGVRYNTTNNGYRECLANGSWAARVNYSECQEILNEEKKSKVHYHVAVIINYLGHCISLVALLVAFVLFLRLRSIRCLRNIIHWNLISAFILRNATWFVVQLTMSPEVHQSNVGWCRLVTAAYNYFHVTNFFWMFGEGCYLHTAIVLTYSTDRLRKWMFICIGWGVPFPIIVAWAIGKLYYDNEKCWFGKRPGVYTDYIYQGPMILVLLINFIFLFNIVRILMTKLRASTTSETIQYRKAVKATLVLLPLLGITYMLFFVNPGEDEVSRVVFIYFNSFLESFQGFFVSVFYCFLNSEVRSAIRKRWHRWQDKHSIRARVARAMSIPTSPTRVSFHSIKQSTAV
T18 sequence (Q9BYF1 18-805): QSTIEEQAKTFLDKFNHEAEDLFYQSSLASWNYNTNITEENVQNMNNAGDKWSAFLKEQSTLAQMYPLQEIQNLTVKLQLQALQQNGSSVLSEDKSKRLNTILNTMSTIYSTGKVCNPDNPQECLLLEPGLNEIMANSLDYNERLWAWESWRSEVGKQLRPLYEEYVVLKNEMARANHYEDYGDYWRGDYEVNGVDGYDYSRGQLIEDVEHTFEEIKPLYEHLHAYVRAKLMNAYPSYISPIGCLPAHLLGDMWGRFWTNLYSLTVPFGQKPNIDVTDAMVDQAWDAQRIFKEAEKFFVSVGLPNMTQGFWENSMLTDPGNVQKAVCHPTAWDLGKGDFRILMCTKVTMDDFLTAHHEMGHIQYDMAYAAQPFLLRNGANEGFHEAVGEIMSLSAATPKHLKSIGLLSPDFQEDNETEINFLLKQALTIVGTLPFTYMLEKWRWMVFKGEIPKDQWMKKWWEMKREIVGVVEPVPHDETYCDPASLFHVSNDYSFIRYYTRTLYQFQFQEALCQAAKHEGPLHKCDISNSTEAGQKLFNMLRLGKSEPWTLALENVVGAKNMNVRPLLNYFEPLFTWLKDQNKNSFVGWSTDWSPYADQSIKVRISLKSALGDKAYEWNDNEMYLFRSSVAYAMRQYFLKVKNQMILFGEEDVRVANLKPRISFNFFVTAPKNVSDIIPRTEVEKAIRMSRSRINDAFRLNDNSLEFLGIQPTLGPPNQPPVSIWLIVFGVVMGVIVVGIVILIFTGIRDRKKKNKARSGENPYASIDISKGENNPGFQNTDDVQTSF
T2 sequence (P25021 whole entry): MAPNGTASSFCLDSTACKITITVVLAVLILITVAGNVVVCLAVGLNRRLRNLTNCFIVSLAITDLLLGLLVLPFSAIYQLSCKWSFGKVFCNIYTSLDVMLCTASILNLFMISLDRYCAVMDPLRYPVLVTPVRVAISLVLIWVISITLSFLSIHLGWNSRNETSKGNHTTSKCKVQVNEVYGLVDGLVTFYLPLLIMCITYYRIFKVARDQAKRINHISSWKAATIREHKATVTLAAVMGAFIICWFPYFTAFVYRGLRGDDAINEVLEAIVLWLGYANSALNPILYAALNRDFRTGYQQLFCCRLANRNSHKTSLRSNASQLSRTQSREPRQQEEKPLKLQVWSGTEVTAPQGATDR
T9 sequence (P46098 24-478): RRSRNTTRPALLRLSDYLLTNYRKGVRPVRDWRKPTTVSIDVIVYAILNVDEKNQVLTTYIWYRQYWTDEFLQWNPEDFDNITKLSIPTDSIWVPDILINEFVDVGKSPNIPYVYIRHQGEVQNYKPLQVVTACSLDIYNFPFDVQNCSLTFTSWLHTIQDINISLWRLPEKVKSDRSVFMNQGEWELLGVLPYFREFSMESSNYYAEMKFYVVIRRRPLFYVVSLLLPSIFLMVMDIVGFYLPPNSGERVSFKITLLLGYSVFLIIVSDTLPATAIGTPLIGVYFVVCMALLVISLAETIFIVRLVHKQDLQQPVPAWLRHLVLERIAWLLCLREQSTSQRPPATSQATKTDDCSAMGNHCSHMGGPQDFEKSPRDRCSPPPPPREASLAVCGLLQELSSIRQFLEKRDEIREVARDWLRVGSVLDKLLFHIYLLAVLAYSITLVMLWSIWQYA
T3 sequence (P35414 whole entry): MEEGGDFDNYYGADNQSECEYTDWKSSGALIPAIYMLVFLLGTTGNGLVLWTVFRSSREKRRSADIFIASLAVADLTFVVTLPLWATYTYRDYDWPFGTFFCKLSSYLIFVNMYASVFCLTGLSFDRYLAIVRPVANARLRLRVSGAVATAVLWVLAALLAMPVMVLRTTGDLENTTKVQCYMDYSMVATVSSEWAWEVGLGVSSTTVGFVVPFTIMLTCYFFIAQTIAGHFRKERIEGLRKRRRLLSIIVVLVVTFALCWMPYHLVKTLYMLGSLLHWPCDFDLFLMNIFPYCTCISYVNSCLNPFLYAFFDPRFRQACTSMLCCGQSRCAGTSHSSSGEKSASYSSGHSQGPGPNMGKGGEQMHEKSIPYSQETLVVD
T10 sequence (P50052 whole entry): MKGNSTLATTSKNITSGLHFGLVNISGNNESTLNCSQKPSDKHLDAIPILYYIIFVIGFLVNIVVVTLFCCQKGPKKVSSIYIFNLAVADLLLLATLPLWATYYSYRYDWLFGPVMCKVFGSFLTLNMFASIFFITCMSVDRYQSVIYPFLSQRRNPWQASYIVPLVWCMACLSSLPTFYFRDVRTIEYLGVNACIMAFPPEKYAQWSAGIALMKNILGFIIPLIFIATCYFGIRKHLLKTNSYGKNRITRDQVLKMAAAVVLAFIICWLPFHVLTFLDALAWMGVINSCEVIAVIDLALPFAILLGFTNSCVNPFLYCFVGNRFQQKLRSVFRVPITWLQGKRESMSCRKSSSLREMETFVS

Cn1cc(-c2cccc(-c3nc(C(=O)NC4C5CC6CC4CC(O)(C6)C5)c(N)nc3N)c2)cn1 (stereo not drawn) [compound 4]
inhibition at 1 µM (H3): 7.4% | inhibition at 1 µM (H2): 0% | percentage of inhibition of activity (HIV-1 protease): -16.1% | inhibition at 1 µM (APJ (apelin)): 0.8% | inhibition at 1 µM (5-HT4e): 3.8% | inhibition at 1 µM (IP (PGI2)): -5.1% | inhibition at 1 µM (GR): 0.9% | inhibition at 1 µM (sst1): 1.2% | inhibition at 1 µM (NK1): 11.6% | inhibition at 1 µM (5-HT3): -0.4% | inhibition at 1 µM (AT2): -8% | inhibition at 1 µM (CRF1): -37% | inhibition at 1 µM (5-HT transporter): -8.5% | inhibition at 1 µM (V2): 0% | inhibition at 1 µM (kappa (KOP)): 11.8% | inhibition at 1 µM (5-HT2B): -7.9% | inhibition at 1 µM (IRK (InsR)): 5% | inhibition at 1 µM (p38alpha kinase): 1.5% | percentage of inhibition of activity (ACE-2): INTER | inhibition at 1 µM (MMP-2): 13.6% | inhibition at 1 µM (alpha 1B): 2.4% | inhibition at 1 µM (D1): 2.3% | inhibition at 1 µM (CB2): -12.2% | inhibition at 1 µM (alpha 2C): -14.1%
